The target in series [1] is T1, A3+B3 (heteromeric CNGA3 + CNGB3) channels (Homo sapiens, UniProt Q16281+Q9NQW8).
T1 sequence (Q16281 1-694): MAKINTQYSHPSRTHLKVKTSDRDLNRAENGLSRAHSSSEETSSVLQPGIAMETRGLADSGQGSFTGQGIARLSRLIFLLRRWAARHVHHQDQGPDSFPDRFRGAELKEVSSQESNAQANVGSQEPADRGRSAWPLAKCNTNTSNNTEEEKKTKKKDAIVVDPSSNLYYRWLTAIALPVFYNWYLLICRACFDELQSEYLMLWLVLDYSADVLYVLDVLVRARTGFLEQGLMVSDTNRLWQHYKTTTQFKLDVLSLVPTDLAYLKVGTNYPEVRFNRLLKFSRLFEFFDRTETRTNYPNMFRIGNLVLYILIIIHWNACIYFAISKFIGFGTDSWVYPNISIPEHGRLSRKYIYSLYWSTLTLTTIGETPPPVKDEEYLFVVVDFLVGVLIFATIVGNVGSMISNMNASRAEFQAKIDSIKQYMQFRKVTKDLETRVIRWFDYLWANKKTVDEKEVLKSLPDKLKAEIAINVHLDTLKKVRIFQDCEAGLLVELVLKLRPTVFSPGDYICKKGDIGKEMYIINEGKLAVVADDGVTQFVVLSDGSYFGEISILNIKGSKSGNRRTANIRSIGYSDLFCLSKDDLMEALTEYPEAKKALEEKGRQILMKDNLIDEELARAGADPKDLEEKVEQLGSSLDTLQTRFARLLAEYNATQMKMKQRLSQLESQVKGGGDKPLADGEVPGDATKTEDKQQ
T1 sequence (Q9NQW8 1-809): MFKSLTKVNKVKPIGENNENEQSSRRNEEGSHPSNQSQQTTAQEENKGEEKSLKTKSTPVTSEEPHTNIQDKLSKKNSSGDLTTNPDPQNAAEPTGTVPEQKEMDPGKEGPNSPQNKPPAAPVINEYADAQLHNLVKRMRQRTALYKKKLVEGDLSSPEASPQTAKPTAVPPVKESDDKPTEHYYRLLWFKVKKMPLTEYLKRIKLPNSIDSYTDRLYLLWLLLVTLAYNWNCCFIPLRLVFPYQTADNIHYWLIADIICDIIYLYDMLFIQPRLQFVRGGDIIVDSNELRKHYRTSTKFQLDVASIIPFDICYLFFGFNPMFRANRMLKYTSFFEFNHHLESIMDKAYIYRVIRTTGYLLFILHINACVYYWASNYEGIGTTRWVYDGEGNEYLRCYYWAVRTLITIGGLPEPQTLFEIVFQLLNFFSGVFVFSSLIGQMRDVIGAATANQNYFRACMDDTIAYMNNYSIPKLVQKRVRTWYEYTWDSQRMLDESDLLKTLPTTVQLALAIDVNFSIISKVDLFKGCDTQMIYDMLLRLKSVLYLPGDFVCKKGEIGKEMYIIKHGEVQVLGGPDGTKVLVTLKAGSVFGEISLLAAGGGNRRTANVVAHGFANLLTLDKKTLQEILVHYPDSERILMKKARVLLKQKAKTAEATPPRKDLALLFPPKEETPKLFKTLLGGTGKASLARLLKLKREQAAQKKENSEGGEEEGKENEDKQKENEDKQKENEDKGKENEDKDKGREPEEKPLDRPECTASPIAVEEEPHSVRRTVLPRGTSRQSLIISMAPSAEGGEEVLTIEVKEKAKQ
Kind of series: inside-out patch clamp, macroscopic current dose-response, Hill fit. It is filed as cell-based.

For series [2], the target named is T2, A3 (homomeric CNGA3) channels (Homo sapiens, UniProt Q16281).
T2 sequence (Q16281 1-694): T1 sequence (Q16281 1-694)
The description is as above. The class given is cell-based.

Series [3] can be described thus: anti-FLAG immunoblot, intact oocytes exposed to MMPs 1 h. As to conditions: glycan lost; control: glycosylated form of A3wt subunits.

As to `Nc1nc2c(ncn2[C@@H]2O[C@@H]3COP(=O)(O)O[C@H]3[C@H]2O)c(=O)[nH]1` [cGMP], the figures for the half-maximal effective concentration (EC50) in series [1] and in series [2] were 15.2 ± 1.1 µM and 5.6 ± 1 µM, respectively.

B1: CNGA3: A3N339Q (protein)
parent chain: T1 sequence (Q16281 1-694)
Take B1: the “other: proteolytic processing” value in series [3] was “increases”.
